The target in one experiment is ER (Homo sapiens (Human), UniProt P03372). As to the kind of experiment: ER antagonism assay. The format is cell-based. Particulars: SK-BR-3 cells transfected with ERE plasmid and ER, 100 nM β-Estradiol, 24 h. The procedure:
ER antagonism assay: To evaluate ER antagonist activity, SK-BR-3 cells were seeded at a density of 30000 cells/well in the assay plate. The assay plate was then incubated at 37° C., 5% CO2 for 24 h. A mixture of ERE plasmid and ER in opti-MEM media was incubated with lipofectamine 3000 in Opti-MEM media and incubated at room temperature for 15 mins. 10 μl of this transfection mix was added to each well of the assay plate and the assay plate was incubated at 37° C., 5% CO2 for 24 h. 100 nM β-Estradiol in 10 μL medium or 10 μL medium (control wells) was added to corresponding wells of assay plate and incubated at 37° C. 5% CO2 for 24 h. After the incubation period, 50 μl of Dual-glo luciferase reagent was added to the assay plate and mixed at room temperature for 20 mins on an orbital shaker, before reading out on the EnVision plate reader. 50 μL of Stop & Glo reagent was added to assay plate, mixed at room temperature for 20 minutes, and read on the Envision plate reader.

A further experiment concerns MCF7 cells. As to the kind of experiment: Cell viability assay, MCF7. In kind it is cell-based. The note with it: Homo sapiens. The procedure: (§1) Cell viability assay: LNCap, 22Rv1, MCF7, MDAMB361, T47D, and IEC6 cells are seeded at a density of 500-2000 cells/well in 96 well plates, and a ‘T0’ (timepoint 0) was included along with the assay plate. The plates are then incubated at 37° C., 5% CO2 in a cell culture incubator overnight. On the next day, the ‘T0’ plate was assayed using CellTiterGlo (Promega, Inc) according to the manufacturer's instructions. The appropriate compounds are diluted in DMSO and added to the assay plate (final DMSO concentration of 0.1-0.2%) on the next day. The assay plates are incubated for 6 days at 37° C., 5% CO2. After the incubation period, the plates are assayed using CellTiterGlo (Promega, Inc) according to the manufacturer's instructions and luminescence was read on the EnVision plate reader. Inhibition of the tested compounds was determined by the following formula: Inhibition rate (%)=(1−(RLU compound−RLU day0)/(RLU control−RLU day0))*100%. GraphPadPrism was used to analyze the data and determine GI50/IC50 values.

In experiment [1] the target is ER Alpha-ligand binding domain (LBD) (Homo sapiens (Human), UniProt P03372). The experiment in a line: ER binding assay (LanthaScreen TR-FRET ER Alpha Competitive Binding). The note with it: Fluormone ES2 Green tracer 3 nM, 2 h room temperature. The protocol:
ER binding assay: ERα binding was assessed using the LanthaScreen® TR-FRET ER Alpha Competitive Binding kit from ThermoFisherScientific. In this assay, a terbium-labeled anti-GST antibody was used to indirectly label GST-tagged ER Alpha-ligand binding domain (LBD) by binding to its GST tag. Competitive binding to the ER Alpha-LBD (GST) was detected by a test compound's ability to displace a fluorescent ligand (Fluormone™ ES2 Green tracer) from the ER Alpha-LBD (GST), which results in a loss of FRET signal between the Tb-anti-GST antibody and the tracer. Briefly, to assess ER binding of the DDC compounds, the test compounds (top dose 10 μM, 4 fold serial dilution, 8 point dose response) and controls were transferred to the assay plate. The Fluormone™ ES2 Green tracer (3 nM final concentration with assay buffer) was added to the assay plate. This was followed by addition of a mixture of the ER Alpha-LBD (GST) and terbium anti-GST antibody. After a 2 h incubation period at room temperature, the plate was read on the Envision plate reader and the TR-FRET ratio of 520:495 emissions were calculated and used to determine the IC50 from a dose response curve of the compound.
Background: Time-resolved FRET reads energy transfer from a long-lived donor to a nearby acceptor.

A further experiment has as its system MDAMB361 cells. The experiment in a line: Cell viability assay, MDAMB361. In kind it is cell-based. Particulars: Homo sapiens. The procedure: as §1
A further experiment relates to T47D cells. The experiment in a line: Cell viability assay, T47D. In kind it is cell-based. The note with it: Homo sapiens, 144 h. The protocol: as §1
The subject of the next experiment is IEC6 cells. The experiment in a line: Cell viability assay, IEC6. The note with it: Rattus norvegicus. The format is cell-based. The protocol: as §1
The subject of a further experiment is LNCap cells. The experiment in a line: Cell viability assay, LNCap. The format is cell-based. Particulars: Homo sapiens, 144 h. The protocol:
as §1

The mark [2] stands for this setting: MCF7, 144 h, read-out: MCF7 (GI50, nM).
[3] abbreviates: MDA-MB-361, 144 h, read-out: MDA-MB-361 (GI50, nM).
The mark [4] stands for this setting: T47D, read-out: T47D (GI50, nM).
Setting [5] is: IEC-6, 144 h, read-out: IEC-6 (IC50, nM).
Where [6] appears, read: LNCaP, read-out: LNCap (GI50, nM).

Like-named read-outs stand apart in the source and are kept apart here. Where only a bound is given, the exact number is not on record here.

As a reminder, the IC50 is the concentration at which inhibition is half-maximal. What is called GI50 is the concentration that inhibits growth by half.

Sequence of ER Alpha-ligand binding domain (LBD) (P03372 whole entry, looked up, the tested form may be a part): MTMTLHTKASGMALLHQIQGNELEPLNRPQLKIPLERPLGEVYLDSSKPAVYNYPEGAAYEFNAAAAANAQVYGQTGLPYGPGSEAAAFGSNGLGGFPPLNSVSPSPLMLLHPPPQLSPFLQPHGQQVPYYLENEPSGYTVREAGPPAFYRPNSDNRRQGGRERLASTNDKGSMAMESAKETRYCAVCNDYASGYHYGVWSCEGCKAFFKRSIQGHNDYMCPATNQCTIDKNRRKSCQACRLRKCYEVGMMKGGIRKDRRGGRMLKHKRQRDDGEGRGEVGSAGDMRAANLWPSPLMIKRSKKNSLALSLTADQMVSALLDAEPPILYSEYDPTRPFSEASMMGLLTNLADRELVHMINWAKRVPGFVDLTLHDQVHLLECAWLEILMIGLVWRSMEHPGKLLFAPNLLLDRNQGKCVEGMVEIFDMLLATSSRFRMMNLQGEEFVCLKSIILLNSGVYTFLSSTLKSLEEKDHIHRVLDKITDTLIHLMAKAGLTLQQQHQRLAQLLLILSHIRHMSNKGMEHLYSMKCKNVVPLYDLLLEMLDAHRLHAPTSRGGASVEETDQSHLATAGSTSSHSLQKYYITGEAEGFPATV
Sequence of ER (P03372 whole entry, looked up): as the sequence (P03372 whole entry, looked up, the tested form may be a part) above

In the case of `CCc1c2c(nc3ccc(OC(=O)N4CCN(C(=O)CCCCCOc5cc(F)c([C@@H]6c7[nH]c8ccccc8c7C[C@@H](C)N6CC(C)(C)F)c(F)c5)CC4)cc13)-c1cc3c(c(=O)n1C2)COC(=O)[C@]3(O)CC` [Compound 1, (S)-4,11-diethyl-4-hydroxy-3,14-dioxo-3,4,12,14-tetrahydro-1H-pyrano[3′,4′:6,7]indolizino[1,2-b]quinolin-9-yl 4-(6-(3,5-difluoro-4-((1R,3R)-2-(2-fluoro-2-methylpropyl)-3-methyl-2,3,4,9-tetrahydro-1H-pyrido[3,4-b]indol-1-yl)phenoxy)hexanoyl)piperazine-1-carboxylate], the IC50 against ER is 10 to 500 nM; in experiment [1], less than 10 nM. For the same compound, the concentration for 50% growth inhibition (GI50) in the experiment with MCF7 cells (setting [2]) and in the experiment on MDAMB361 cells (setting [3]) was 10 to 500 nM in each case.

For `CCc1c2c(nc3ccc(OC(=O)N4CCN(CCCCCCOc5cc(F)c([C@@H]6c7[nH]c8ccccc8c7C[C@@H](C)N6CC(C)(C)F)c(F)c5)CC4)cc13)-c1cc3c(c(=O)n1C2)COC(=O)[C@]3(O)CC` [Compound 2, (S)-4,11-diethyl-4-hydroxy-3,14-dioxo-3,4,12,14-tetrahydro-1H-pyrano[3′,4′:6,7]indolizino[1,2-b]quinolin-9-yl 4-(6-(3,5-difluoro-4-((1R,3R)-2-(2-fluoro-2-methylpropyl)-3-methyl-2,3,4,9-tetrahydro-1H-pyrido[3,4-b]indol-1-yl)phenoxy)hexyl)piperazine-1-carboxylate], the figures for the half-maximal inhibitory concentration (IC50) (on ER; in experiment [1]) were 10 to 500 nM and less than 10 nM, respectively. In addition, the GI50 in the experiment with MCF7 cells (setting [2]) and with MDAMB361 cells (setting [3]) was 10 to 500 nM in each case.

`CC[C@@]1(O)C(=O)OCc2c1cc1n(c2=O)Cc2cc3c(COC(C)(C)C)c(OC(=O)N4CCN(CCCCCCN(C)c5ccc([C@H]6C[C@@]7(C)[C@@H](CC[C@]7(OC(C)=O)C(C)=O)[C@@H]7CCC8=CC(=O)CCC8=C76)cc5)CC4)ccc3nc2-1` [Compound 17, (S)-10-(tert-Butoxymethyl)-4-ethyl-4-hydroxy-3,14-dioxo-3,4,12,14-tetrahydro-1H-pyrano[3′,4′:6,7]indolizino[1,2-b]quinolin-9-yl 4-(6-((4-((8S,11R,13S,14S,17R)-17-acetoxy-17-acetyl-13-methyl-3-oxo-2,3,6,7,8,11,12,13,14,15,16,17-dodecahydro-1H-cyclopenta[a]phenanthren-11-yl)phenyl)(methyl)amino)hexyl)piperazine-1-carboxylate]: the GI50 with T47D cells (setting [4]), in the experiment on MCF7 cells (setting [2]), with LNCap cells (setting [6]) and with MDAMB361 cells (setting [3]) was greater than 1000 nM each time. The IC50 in the experiment with IEC6 cells (setting [5]) was greater than 1000 nM.

As to `CC[C@@]1(O)C(=O)OCc2c1cc1n(c2=O)Cc2cc3c(CN(C)C)c(OC(=O)N4[C@H](C)CN(CCCCCCN(C)c5ccc([C@H]6C[C@@]7(C)[C@@H](CC[C@]7(OC(C)=O)C(C)=O)[C@@H]7CCC8=CC(=O)CCC8=C76)cc5)C[C@H]4C)ccc3nc2-1` [Compound 16, (S)-10-((Dimethylamino)methyl)-4-ethyl-4-hydroxy-3,14-dioxo-3,4,12,14-tetrahydro-1H-pyrano[3′,4′:6,7]indolizino[1,2-b]quinolin-9-yl (2R,6R)-4-(6-((4-((8S,11R,13S,14S,17R)-17-acetoxy-17-acetyl-13-methyl-3-oxo-2,3,6,7,8,11,12,13,14,15,16,17-dodecahydro-1H-cyclopenta[a]phenanthren-11-yl)phenyl)(methyl)amino)hexyl)-2,6-dimethylpiperazine-1-carboxylate], the GI50 with T47D cells (setting [4]) is 10 to 500 nM; in the experiment on MCF7 cells (setting [2]), 10 to 500 nM; in the experiment with LNCap cells (setting [6]) it was 501 to 1000 nM; with MDAMB361 cells (setting [3]), greater than 1000 nM. In addition, the half-inhibitory concentration (IC50) in the experiment with IEC6 cells (setting [5]) was greater than 1000 nM.

As for `CC[C@@]1(O)C(=O)OCc2c1cc1n(c2=O)Cc2cc3c(CN4CCN(C(=O)CCCCCN(C)c5ccc([C@H]6C[C@@]7(C)[C@@H](CC[C@]7(OC(C)=O)C(C)=O)[C@@H]7CCC8=CC(=O)CCC8=C76)cc5)CC4)c(O)ccc3nc2-1` [Compound 19, (8S,11R,13S,14S,17R)-17-Acetyl-11-(4-((6-(4-(((S)-4-ethyl-4,9-dihydroxy-3,14-dioxo-3,4,12,14-tetrahydro-1H-pyrano[3′,4′:6,7]indolizino[1,2-b]quinolin-10-yl)methyl)piperazin-1-yl)-6-oxohexyl)(methyl)amino)phenyl)-13-methyl-3-oxo-2,3,6,7,8,11,12,13,14,15,16,17-dodecahydro-1H-cyclopenta[a]phenanthren-17-yl Acetate], the GI50 in the experiment with T47D cells (T47D cells, 6 days, CellTiterGlo, read-out: T47D (GI50)) was in the range of 10 to 500 nM; with MCF7 cells (144 h, MCF7 cells, 6 days, CellTiterGlo, read-out: MCF7 (GI50)), 10 to 500 nM; with LNCap cells (LNCap cells, 6 days, CellTiterGlo, read-out: LNCap (GI50)), 10 to 500 nM; with MDAMB361 cells (144 h, MDA-MB-361 cells, 6 days, CellTiterGlo, read-out: MDA-MB-361 (GI50)), 10 to 500 nM. In addition, the IC50 with IEC6 cells (144 h, IEC-6 cells, 6 days, CellTiterGlo, read-out: IEC-6 (IC50)) was greater than 1000 nM.

In the case of `CC[C@@]1(O)C(=O)OCc2c1cc1n(c2=O)Cc2cc3c(CN(C)C)c(OC(=O)N4CCN(CCCCCCOc5cc(F)c(C6c7[nH]c8ccccc8c7CC(C)N6CC(C)(C)F)c(F)c5)CC4)ccc3nc2-1` (stereo in doubt) [Compound 13, (S)-10-((Dimethylamino)methyl)-4-ethyl-4-hydroxy-3,14-dioxo-3,4,12,14-tetrahydro-1H-pyrano[3′,4′:6,7]indolizino[1,2-b]quinolin-9-yl 4-(6-(3,5-difluoro-4-((1S,3S)-2-(2-fluoro-2-methylpropyl)-3-methyl-2,3,4,9-tetrahydro-1H-pyrido[3,4-b]indol-1-yl)phenoxy)hexyl)piperazine-1-carboxylate], the concentration for half-maximal inhibition (IC50) was 501 to 1000 nM in the experiment with IEC6 cells (setting [5]), 10 to 500 nM against ER and 10 to 500 nM in experiment [1]. Moreover, the 50% growth inhibitory concentration (GI50) with MCF7 cells (setting [2]) and with MDAMB361 cells (setting [3]) was 10 to 500 nM throughout.
